Experimental data as given in US20080213219A1, “Methods for treatment and management of macular degeneration using 3-(4-amino-1-oxo-1,3-dihydro-isoindol-2-yl)-piperidine-2,6-dione” (Celgene Corporation, priority 2002, published 2008).

Legend:
TNF-α production [1] = assay: Inhibition of TNF-α production following LPS-stimulation of human whole blood; format: cell-based; conditions: LPS-stimulated human whole blood; read-out: IC50 for inhibiting production of TNF-α
Text: (§1) In a specific embodiment, inhibitions of TNF-α production following LPS-stimulation of human PBMC and human whole blood by 3-(4-amino-1-oxo-1,3-dihydro-isoindol-2-yl)-piperidine-2,6-dione, 4-(amino)-2-(2,6-dioxo-(3-piperidyl))-isoindoline-1,3-dione or thalidomide were investigated in vitro.

[2] = test system: TNF-α, IL1β, IL6, IL10 production; assay: LPS-stimulated cytokine production by PBMC; format: cell-based
macular degeneration = assay: Clinical study in patients with macular degeneration, adjuvant to photodynamic therapy with verteporfin; format: in vivo; conditions: about 10 mg/day for 20 weeks as adjuvant to verteporfin photodynamic therapy
Description: Immunomodulatory compounds are administered in an amount of about 0.1 to about 25 mg per day to patients with macular degeneration. In a specific embodiment, clinical studies are performed with forty patients with macular degeneration, who are divided into two groups. The first group receives conventional treatment for closing the leaking choroidal vessels (characteristic of this disease) by photodynamic therapy with verteporfin. Opthalmol 1999 (117): 1329-1345. The second group receives the same conventional therapy with verteporfin and 3-(4-amino-1-oxo-1,3-dihydro-isoindol-2-yl)-piperidine-2,6-dione in an amount of about 10 mg/day as an adjuvant for 20 weeks.
However, the first group without 3-(4-amino-1-oxo-1,3-dihydro-isoindol-2-yl)-piperidine-2,6-dione experiences progressive reperfusion of the ablated vessels several weeks after treatment. Progressive visual loss follows which requires the photodynamic therapy to be repeated.

TNF-α production [3] = assay: Inhibition of TNF-α production following LPS-stimulation of human PBMC; format: cell-based; conditions: LPS-stimulated PBMC, read-out: IC50 for inhibiting production of TNF-α
Text: as §1

MD [4] = conditions: intravitreal injection, one-year period, patients with MD; cited from earlier work
laser-induced CNVM = conditions: intravitreal injection, monkeys; cited from earlier work
MD [5] = conditions: cited from earlier work

Row | Compound | IC50 (TNF-α production [1]) [nM] | LPS-stimulated production of IL1β [2] | LPS-stimulated production of IL6 [2] | LPS-stimulated production of TNF-α [2] | production of the anti-inflammatory cytokine IL10 [2] | neovascular cascade / duration of the effects of photodynamic therapy (macular degeneration) | IC50 (TNF-α production [3]) [nM] | prevention of severe visual loss (MD [4]) | growth of laser-induced CNVM (laser-induced CNVM) | efficacy at treating MD (MD [5]; clinical trial) | rate of adverse effects (MD [5]; in vivo)
1 | Nc1cccc2c1CN(C1CCC(=O)NC1=O)C2=O (centres unmarked) [3-(4-Amino-1-oxo-1,3-dihydro-isoindol-2-yl)-piperidine-2,6-dione] | ~480 | dose-dependent inhibition | dose-dependent inhibition | dose-dependent inhibition | increased production | sufficiently hindered | ~100 |  |  |  | 
2 | Nc1cccc2c1C(=O)N(C1CCC(=O)NC1=O)C2=O (centres unmarked) [4-(Amino)-2-(2,6-dioxo(3-piperidyl))-isoindoline-1,3-dione] | ~25 | dose-dependent inhibition | dose-dependent inhibition | dose-dependent inhibition | increased production |  | ~24 |  |  |  | 
3 | C[C@]12C=CC(=O)C=C1CC[C@H]1[C@@H]3C[C@@H](O)[C@](O)(C(=O)CO)[C@@]3(C)C[C@H](O)[C@@]12F [triamcinolone] |  |  |  |  |  |  |  | fails to prevent | inhibits |  | 
4 | interferon-α |  |  |  |  |  |  |  |  |  | ineffective | high rate of adverse effects
